The source of these data is patent publication US10369113B2, “Prostate specific membrane antigen (PSMA) targeted nanoparticles for therapy of prostate cancer” (The Johns Hopkins University, priority 2007, dated 2019).

The term inhibition denotes how much of the control response was suppressed.

The subject of this assay is PSMA-expressing LNCaP human prostate cancer cells. As to the kind of experiment: In vitro toxicity of nanoparticles (MTT assay after 15 min exposure). Format: cell-based. The following applies: 48 hrs after 15 min exposure, 100 nM docetaxel equivalent, read-out: inhibition of cell growth. The method, then:
The cytotoxicity of the nontargeted particles in that study was ascribed to a combination of nonspecific uptake and to the expected nonspecific release of docetaxel from the particle into the media over the exposure period. […] Following determination of the amount of docetaxel loading in the particles, PSMA-expressing LNCaP human prostate cancer cells were exposed to equimolar amounts (i.e. 100 nM) of loaded nanoparticles or free docetaxel. To minimize the effects of nonspecific endocytosis, cells were only exposed to test compounds for 15 min at which time cells were washed and then placed in drug free media. Cell counts were determined by converting absorbance from MTT assay to cell number based on a standard curve of absorbance from MTT assay of known amounts of LNCaP cells. In this assay, 48 hrs following exposure, the growth of cells exposed to the nontargeted nanoPEG particles was inhibited by 65% while cell growth was inhibited 89% by docetaxel and 95% by the nanoPSMAi2 particles. […]
Cytotoxicity assays were performed as described previously (Denmeade, S. R., et al. J Natl Cancer Inst, 95: 990-1000, 2003). […] Cells were then incubated in media at 37° C. and at the end of 48 hours and 96 hours, effects on cell growth were determined using the MTT assay (Promega, WI) according to manufacturer's instructions.

Take `CC(=O)O[C@@]12CO[C@@H]1C[C@H](O)[C@@]1(C)C(=O)[C@H](O)C3=C(C)[C@@H](OC(=O)[C@H](O)[C@@H](NC(=O)OC(C)(C)C)c4ccccc4)C[C@@](O)([C@@H](OC(=O)c4ccccc4)[C@H]21)C3(C)C` [docetaxel]: the inhibition at 0.1 µM amounted to 89%.
